In patent US7776897B2, “Triazole derivative or salt thereof” (Astellas Pharma Inc., priority 2004, dated 2010):

Columns and labels:
[1] = molecular target: human recombinant 11β-HSD1 (Homo sapiens, UniProt P28845); assay: Test for measuring human 11β-HSD1 inhibitory activity (HTRF cortisol detection); type: biochemical; details: human recombinant enzyme, 200 nM cortisone, 40 μM NADPH, pH 6.6, room temperature 1 hour; average of 3 wells
Method: (§1) (1) Test for Measuring Human 11β-HSD1/11β-HSD2 Inhibitory Activity
(§2) The procedure for measuring human 11β-HSD1/11β-HSD2 inhibitory activity is as follows. The enzymatic reaction and measurement were performed using a 384-well plate. The reaction was carried out by adding a test compound in various concentrations to a reaction solution containing a 10 mM phosphate buffer solution (pH 6.6), 200 nM cortisone, 40 μM reduced nicotinamide adenine dinucleotide phosphate (NADPH), and human recombinant 11β-HSD1 and then incubating the mixture at room temperature for 1 hour (10 μl/well). The test compound was dissolved in dimethyl sulfoxide (DMSO) to prepare a sample so that the DMSO concentration in the reaction solution became 1%. After the enzymatic reaction, an enzymatic inhibitory activity was measured by detecting cortisol using homogeneous time-resolved fluorescence (HTRF). XL-665-labeled cortisol containing 400 μM carbenoxolone and cryptate-labeled cortisol antibody (CIS Bio International) were added in each amount of 5 μl/well, followed by incubation at room temperature for 2 hours. Then, fluorescence intensity was measured using a fluorophotometer (product name: Discovery, PerkinElmer) and an enzymatic inhibitory activity was calculated based on two-wavelength fluorescence intensity ratio (665 nm/620 nm).
(§3) The results of the measurement were calculated as an average of the values for 3 wells obtained under the same conditions.

[2] = molecular target: T1, human recombinant 11β-HSD2 (Homo sapiens, UniProt P80365); assay: Test for measuring human 11β-HSD2 inhibitory activity (HTRF cortisol detection); type: biochemical; details: human recombinant enzyme, 200 nM cortisol, 200 μM NAD, pH 8.0, 37° C. 2 hours; average of 3 wells
T1 sequence (P80365 1-405): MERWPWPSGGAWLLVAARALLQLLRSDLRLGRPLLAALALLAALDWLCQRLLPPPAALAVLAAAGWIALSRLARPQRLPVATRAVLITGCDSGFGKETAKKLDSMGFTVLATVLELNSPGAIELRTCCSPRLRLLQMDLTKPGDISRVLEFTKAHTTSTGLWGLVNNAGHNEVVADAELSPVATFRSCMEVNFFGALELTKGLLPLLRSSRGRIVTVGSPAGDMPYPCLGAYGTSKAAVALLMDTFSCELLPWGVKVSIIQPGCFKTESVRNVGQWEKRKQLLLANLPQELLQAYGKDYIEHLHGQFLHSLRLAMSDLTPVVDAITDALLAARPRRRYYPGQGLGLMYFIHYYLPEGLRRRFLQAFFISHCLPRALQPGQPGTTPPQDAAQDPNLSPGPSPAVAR
Method: as §1, §2
The measurement of 11β-HSD2 inhibitory activity was performed in the same manner as in the measurement of 11β-HSD1 inhibitory activity except for enzymatic reaction conditions. The enzymatic reaction was carried out by adding a test compound in various concentrations to a reaction solution containing a 40 mM tris-hydrochloride buffer solution (Tris-HCl) (pH 8.0), 200 nM cortisol, 200 μM nicotinamide adenine dinucleotide (NAD), and human recombinant 11β-HSD2 and then incubating the mixture at 37° C. for 2 hours (10 μl/well).
as §3

ob/ob mice = assay: ob/ob mouse blood-glucose lowering test; type: in vivo; details: male ob/ob mice, 30 mg/kg bid orally for 9 days, measured 12 hours after final administration, non-fasting, n=6
Method: (2) ob/ob Mouse Blood-Glucose Lowering Test
A compound solution was prepared using 6% 2-hydroxypropyl-p-cyclodextrin as a solvent. Using 8 weeks-old male ob/ob mice (blood-glucose level of 300 mg or more), blood-glucose levels were measured under non-fasting conditions and then the mice were divided into groups so that the blood-glucose levels became even among the groups. The test compound was orally administered twice per day repeatedly for 9 days (30 mg/kg, bid) and a blood-sugar level was measured 12 hours after final administration (n=6). The blood-glucose level was measured by subjecting a collected blood to protein-removing treatment and then conducting colorimetric quantitative determination of a glucose level (mg/dL) in the supernatant.

human recombinant 11β-HSD1, sequence (P28845 whole entry): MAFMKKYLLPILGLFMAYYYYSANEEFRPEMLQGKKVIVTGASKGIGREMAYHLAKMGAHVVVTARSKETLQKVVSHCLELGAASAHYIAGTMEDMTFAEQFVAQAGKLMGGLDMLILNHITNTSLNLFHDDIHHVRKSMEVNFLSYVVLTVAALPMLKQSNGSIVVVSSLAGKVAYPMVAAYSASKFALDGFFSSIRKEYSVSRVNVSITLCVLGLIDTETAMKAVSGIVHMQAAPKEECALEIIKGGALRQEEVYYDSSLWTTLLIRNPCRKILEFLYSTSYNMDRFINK

IC50 [1] [µM] | IC50 [2] [µM] | Compound | blood-glucose lowering action (ob/ob mice) [%]
0.018 | > 3 | Cn1cccc1C(C)(C)c1nnc(-c2ccccc2Cl)n1C [Example 158] | –
0.015 | – | CN(C1(c2nnc(-c3ccccc3Cl)n2C)CCCC1)S(=O)(=O)c1ccccc1 [Example 115] | –
0.06 | – | Cn1c(-c2ccccc2Cl)nnc1C(C)(C)NC(=O)c1ccccc1 [Example 174] | –

The remaining lines, values behind:

Compound | IC50 [1] [µM] | IC50 [2] [µM] | blood-glucose lowering action (ob/ob mice) [%]
Clc1ccc(C2(c3nnc4n3CCCCC4)CCCC2)s1 [Example 62] | 0.0053 | > 3 | –
c1csc(C2(c3nnc4n3CCCCC4)CCCC2)c1 [Example 60] | 0.013 | > 3 | –
CC(C)(c1cccs1)c1nnc2n1CCCCCC2 [Example 100] | 0.0066 | > 1 | –
c1csc(C2(c3nnc4n3CCCCCC4)CCCC2)c1 [Example 68] | 0.0044 | > 1 | 32
